Measurements: patent US20200354426A1 (MEDIMMUNE LIMITED, priority 2016, published 2020)
pEC50: −log10 of the molar value. Marks after values point to notes of the source that are not given here. Numbered stars: 1 amine (or outer) side, 2 acyl side, 3 side chain; on linkers, the order of the positions; unused ones are H or OH. Side chains are listed from the residue outwards. Peptide text beside a SMILES is read from it. * marks the point of attachment. γGlu = O=C(O)[C@H](CCC(=O)[*:2])N[*:1]; Palmitoyl = CCCCCCCCCCCCCCCC(=O)*

What was measured:
Mouse GLP1R = target: T1, Mouse GLP1R (Mus musculus, UniProt O35659); experiment: cAMP assay in 3.2% mouse serum albumin (assay 2); format: cell-based
T1 construct: expressed in transfected cells
T1 sequence (O35659 22-463): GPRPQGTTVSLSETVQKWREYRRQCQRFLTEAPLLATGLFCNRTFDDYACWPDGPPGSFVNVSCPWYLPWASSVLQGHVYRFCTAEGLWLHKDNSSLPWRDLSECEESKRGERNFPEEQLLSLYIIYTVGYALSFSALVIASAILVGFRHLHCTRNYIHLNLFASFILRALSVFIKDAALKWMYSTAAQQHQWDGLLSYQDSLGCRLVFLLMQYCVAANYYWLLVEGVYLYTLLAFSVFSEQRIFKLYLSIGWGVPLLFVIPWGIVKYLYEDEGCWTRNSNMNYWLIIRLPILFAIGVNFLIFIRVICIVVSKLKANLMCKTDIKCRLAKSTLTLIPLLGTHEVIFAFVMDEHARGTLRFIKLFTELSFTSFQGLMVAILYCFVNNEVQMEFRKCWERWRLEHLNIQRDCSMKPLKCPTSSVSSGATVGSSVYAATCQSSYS
Method: Cryopreserved cell stocks were prepared in 1× cell freezing medium-DMSO serum free (Sigma Aldrich) at 2×10^7/vial and stored at −80° C. […] Peptides were serially diluted in DMSO and then diluted 100 fold into DMEM containing serum albumin at stated final concentration. […] Cells were added to the assay plates and incubated for 30 min at room temperature. Following incubation the assay was stopped and cAMP levels measured using the HTRF® dynamic d2 cAMP assay kit available from CisBio Bioassays, as per the manufacture's guidelines. Plates were read on Perkin Elmer ENVISION® fluorescence plate readers. Human and rat serum albumin were purchased from Sigma Aldrich and mouse serum albumin from Equitech Bio Ltd.
Data was transformed to % Delta F as described in manufacturer's guidelines and analysed by 4-parameter logistic fit to determine EC50 values. […] For instance. […] To compare the balance of activities at the GLP1R and GlucR between different peptides and across different conditions, these can be correlated using the calculation below, where the EC50's are related to those of the natural ligands.

[1] = Stability testing of peptides in plasma; format: in vitro ADME, mouse
Method: The stability in plasma of the peptideS […], […], […] and […] was determined as follows. […] The spiked plasma samples were gently mixed and allowed to equilibrate for about 5 minutes before start of experiment. The plasma samples were incubated for 48 hours in a GalaxyR CO2 incubator at 37° C. […] The samples were stored at -70° C. until analysis. Plasma samples were assayed as follows. […] After mixing and centrifugation, 100 μl the supernatant was transferred to a new plate and 1 μl was injected onto an analytical column. The analysis was performed using a μLC-system ([…]) coupled to a medium high resolution mass spectrometer (Perkin Elmer PenTOF) with positive electrospray ionisation. […] Flow: 0.1 ml/min using a slow reversed phase gradient. […] Cleavage products arise from the action of the protease DPP IV in plasma. Both the degradation of the peptides and formation of peptide products were reported in percentage of the initial peptide concentration. Peaks were integrated and % remaining peptide was calculated: […] Levels of deamidation and DPP IV cleavage were low for […] and […].

[2] = Peptide solubility in buffers (A280); format: physicochemical
Text: G730 was soluble in a pH range of 4.5 to 8.0.

[3] = Peptide solubility in isotonic formulations (A280); format: physicochemical
Method: Default Formulation (DF)=0.1 M Tris pH 7.5, 150 mM Mannitol. Final formulation pH=7.2 • 2. Back up formulation t (BF)=0.05M Tris, 50 mM Arginine/Proline. Final formulation pH=9.0 • 3. […] Final formulation pH=7.0

[4] = tested on: diet induced obesity (DIO) mouse model; experiment: Diet induced obesity (DIO) mouse model, study A; format: in vivo; details: for BeHy / FGF21 / HOMA / Hepatic TG / Plasma Cholesterol / Plasma NEFA / Plasma TG: day 14; for Glucose / Insulin: day 14, 4-hour fasting
Text: Female C57/B16JHsdOla (obtained from Harlan Laboratories. UK) were started on a high fat diet of D12492 (Research Diets, NJ, USA) and a chocolate confection, delicato ball (Delicata Bakverk, Sweden) at 9-11 weeks of age, and were maintained on the diet for 16 weeks prior to arrival to the animal facility, during a three week acclimation period and during drug treatment, caloric content of the two components of the diet is shown in Table 11. The mice were divided into 9 groups (n=5-6), and treatment was started at 29 weeks of age.
The body weight of the animals was monitored daily throughout the dosing period. At day 14, blood samples for the measurement of plasma glucose and insulin from conscious mice were obtained after a 4-hour fasting period. Mice were then anaesthetized using isoflurane and terminal blood was collected from the capillary bed behind the eye. The following parameters were measured: blood chemistry measurements of triglycerides, total cholesterol, non-esterified fatty acids (NEFA), beta-hydroxybutyrate and fibroblast growth factor 21 (FGF21) (Tables 14 and 15 below).

Human GLP1R [5] = target: T2, Human GLP1R (Homo sapiens, UniProt P43220)
T2 sequence (P43220 24-463): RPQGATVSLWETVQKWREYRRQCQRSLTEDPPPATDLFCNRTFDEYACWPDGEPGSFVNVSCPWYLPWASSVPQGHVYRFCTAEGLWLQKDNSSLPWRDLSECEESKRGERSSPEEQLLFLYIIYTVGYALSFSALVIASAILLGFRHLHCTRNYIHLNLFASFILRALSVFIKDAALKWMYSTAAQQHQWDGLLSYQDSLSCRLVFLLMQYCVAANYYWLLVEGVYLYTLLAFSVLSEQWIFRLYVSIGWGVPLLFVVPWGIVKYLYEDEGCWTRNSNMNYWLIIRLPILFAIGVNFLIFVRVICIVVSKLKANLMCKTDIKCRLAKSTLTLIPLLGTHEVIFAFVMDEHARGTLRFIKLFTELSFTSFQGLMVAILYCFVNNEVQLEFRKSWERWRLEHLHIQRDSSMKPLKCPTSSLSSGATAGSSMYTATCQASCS

Human GLP1R [6] = target: T2, Human GLP1R; experiment: cell-based

## CCCCCCCCCCCCCCCC(=O)N[C@@H](CCC(=O)NCCCC[C@H](NC(=O)[C@H](CCCCN)NC(=O)[C@H](CO)NC(=O)[C@H](Cc1ccc(O)cc1)NC(=O)[C@H](CC(=O)O)NC(=O)[C@H](CO)NC(=O)[C@@H](NC(=O)[C@H](Cc1ccccc1)NC(=O)[C@@H](NC(=O)CNC(=O)[C@H](CCC(N)=O)NC(=O)[C@H](CO)NC(=O)[C@@H](N)Cc1c[nH]cn1)[C@@H](C)O)[C@@H](C)O)C(=O)N[C@@H](CC(C)C)C(=O)N[C@@H](CC(=O)O)C(=O)N[C@@H](CO)C(=O)N[C@@H](CCC(=O)O)C(=O)N[C@@H](CCCNC(=N)N)C(=O)N[C@@H](C)C(=O)N[C@@H](CCCNC(=N)N)C(=O)N[C@@H](CC(=O)O)C(=O)N[C@@H](Cc1ccccc1)C(=O)N[C@H](C(=O)N[C@@H](C)C(=O)N[C@@H](Cc1c[nH]c2ccccc12)C(=O)N[C@@H](CC(C)C)C(=O)N[C@H](C(=O)N[C@@H](C)C(=O)NCC(=O)NCC(N)=O)C(C)C)C(C)C)C(=O)O [Peptide G730] (H-HSQGTFTSDYSKK([γGlu-Palmitoyl])LDSERARDFVAWLVAGG-NH2; N-terminus assumed)
Mouse GLP1R
  pEC50: 8.96
[1]
  % +1 DPP cleaved product: 5%
  % +1 prod: 15%
  % DPP cleaved product: 14%
[1]; mouse plasma, 37° C., 24 h, read-out: % stable peptide
  remaining at 24 h, 2 μmol/L: 65%
[2]; Glutamate pH 4.5, 100 mM
  Conc. (A280), target 1 mg/ml: 830 µg/mL
[2]; Phosphate pH 6.5, 100 mM
  Conc. (A280), target 1 mg/ml: 830 µg/mL
[2]; Phosphate pH 7.5, 100 mM
  Conc. (A280), target 1 mg/ml: 850 µg/mL
[2]; Phosphate, pH = 6, 100 mM
  Conc. (A280), target 1 mg/ml: 140 µg/mL
[2]; Tris pH 7.5, 100 mM
  Conc. (A280), target 1 mg/ml: 830 µg/mL
[2]; Tris pH 8.0, 100 mM
  Conc. (A280), target 1 mg/ml: 1100 µg/mL
[3]; Default Formulation (DF), isotonic, DF = 0.1 M Tris pH 7.5, 150 mM Mannitol
  solubility: ≥ 5000 µg/mL
[3]; Formulation DF, by A280 nm
  Formulation Concentration: 5 mg/mL
[3]; yes/no
  10 mg/ml solubility (BF2): no
[4]; 10 nmol/kg sc twice daily 14 days
  BW day 14 (% change of vehicle mean): −7.5%
[4]; 10 nmol/kg sc twice daily
  BeHy: 428 µmol/L
  FGF21: 1963 pg/mL
  HOMA: 3.3
  Hepatic TG: 9.0 * g TB/100 g tissue
  Plasma Cholesterol: 3.10 mM
  Plasma NEFA: 0.28 Mm
  Plasma TG: 0.21 mM
  Glucose: 7.2 mM
  Insulin: 0.4 nM
[4]; 20 nmol/kg sc twice daily 14 days
  BW day 14 (% change of vehicle mean): −15.6%
[4]; 20 nmol/kg sc twice daily
  BeHy: 750 µmol/L
  FGF21: 2236 pg/mL
  HOMA: 1.7
  Hepatic TG: 17.7 g TB/100 g tissue
  Plasma Cholesterol: 2.46 mM
  Plasma NEFA: 0.25 Mm
  Plasma TG: 0.20 mM
  Glucose: 6.7 mM
  Insulin: 0.2 nM
[4]; 50 nmol/kg sc twice daily
  BeHy: 1477 µmol/L
  FGF21: 5294 pg/mL
  HOMA: 2.1
  Hepatic TG: 28.1 g TB/100 g tissue
  Plasma Cholesterol: 2.19 mM
  Plasma NEFA: 0.32 Mm
  Plasma TG: 0.23 mM
  Glucose: 5.9 mM
  Insulin: 0.3 nM
[4]; DIO mice, FIGS. 1-4
  body weight over the 14 day dosing period: dose dependent and continuous weight loss
Human GLP1R [5]
  free peptide at 4.4% HSA: 0.85%
Human GLP1R [6]; EC50 at the GLP1R at 0% HSA, calculated from variation in cAMP generation with HSA concentration
  pEC50: 11.15
Human GLP1R [6]; Human GLP1R EC50, 4.4% human serum albumin
  pEC50: 9.34
